A short description of series [1]: Tolerability in tumor growth inhibition study on different dosing schedules (HT-29). The conditions noted are these: 10 mg/kg IP on days 1, 2, 3, 4 and 5. Format: in vivo, nude mice. The protocol: Female nude mice were implanted subcutaneously with 5 x 10^6 HT-29 cells in 100 µL PBS. Eleven to fourteen days later, tumors were measured and mice randomized into groups of seven with average tumor volume in each group of approximately 230 mm^3. Compound 4 was dissolved in normal saline immediately prior to dosing, and administered IP at a volume of 10 mL/kg. Dosing was vehicle alone on day 1 and day 2; and Compound 4 at 20 mg/kg on day 1; 20 mg/kg on days I and 2; 20 mg/kg on days 1 and 3; 5 mg/kg on days 1, 2 and 3; 10 mg/kg on days 1, 2 and 3; 10 mg/kg on days 1, 2, 3, 4 and 5; 10 mg/kg on days 1 and 2; and 10 mg/kg on days 1 and 3. Animal weights and tumor volumes were measured (using electronic calipers) twice a week. Tumor volume was calculated using the formula: volume = (width^2 x length)/2. Dosing at 10 mg/kg on days 1, 2, 3, 4 and 5 was not tolerated (greater than 20% weight loss and/or death in some of the mice).

Series [2] in a line: Determination of MTD in a Phase 1 Study. Type of series: in vivo, human. The conditions noted are these: IV on Days 1 and 2 every two weeks. From the text: A total of 13 patients with various solid tumors and with a median age of 66 years (range 40-79 years old) were enrolled in a human phase 1 clinical trial (see "Phase 1 Safety and Phamacokinetic Study of ARRY-520 in Solid Tumors." http://clinicaltrials.gov/ct2/show/NCT00462358). The solid tumors treated were breast cancer (2), colorectal cancer (2), non-small cell lung cancer (2), pancreatic cancer (2), bladder cancer, salivary gland cancer (adenoid cystic), esophageal cancer, mesothelioma cancer, and a mixed small cell lung cancer / non-small cell lung cancer. Compound 4 was provided for administration as a lyophilized powder contained in a Type 1 clear glass vial for IV use. The dose levels administered were 1.25 and 1.6 mg/m^2/day of Compound 4 on Days 1 and 2 every two weeks.

Series [3] is described as follows: Determination of MTD of Compound 4 in mice (HT-29 xenograft study). The conditions noted are these: mouse, in vivo; female nude mice with subcutaneous HT-29 xenografts; compound dissolved in normal saline. The procedure: Female nude mice were implanted subcutaneously with 5 x 10^6 HT-29 cells in 100 µL PBS. Ten days Inter, tumors were measured and mice randomized into groups of three with average tumor volume in each group of approximately 240 mm^3. Compound 4 was dissolved in normal saline immediately before dosing. It was determined that 20 mg/kg was the MTD for Compound 4. Dose volume was 10 mL/kg. Dosing was vehicle alone on day 1; and Compound 4 at 20 mg/kg on day 1; and 20 mg/kg on days 1 and 3. At various time points after dosing (24, 48, 72, 96, 120 and 144 hours), mice were euthanized by CO2 inhalation, and the tumors were harvested and immediately placed in formalin. The vehicle control group samples were collected 24 and 72 hours after dosing. The day I group samples were collected 24, 48, 72 and 96 hours after that dose. The day 1 and day 3 group samples were collected 72, 96, 120 and 144 hours after the first dose. Paraffin blocks of tumor tissue were prepared by standard procedures. […] Spindle structures were manually counted in three 40X areas of each sample, using a fluorescent microscope. Apoptosis was quantitated by manual counting of TUNEL positive cells, also in three 40X areas of each sample (TUNEL staining using the In Situ Cell Death Detection Kit, AP from Roche).

As for `CON(C)C(=O)N1N=C(c2cc(F)ccc2F)S[C@@]1(CCCN)c1ccccc1` [Compound 4, (S)-2-(3-aminopropyl)-5-(2,5-difluorophenyl)-N-methoxy-N-methyl-2-phenyl-1,3,4-thiadiazole-3(2H)-carboxamide], in series [1] (female nude mice with HT-29 xenografts), the “tolerability of dosing schedule” value is listed as “not tolerated”. Moreover, the weight loss result in series [1] (weight loss and/or death in some of the mice) was “greater than 20%”. Moreover, the MTD in series [2] (13 patients with various solid tumors, dose levels 1.25 and 1.6 mg/m^2/day) stood at 1.25 mg/m^2/day; in series [3], 20 mg/kg. Moreover, the DLTs entry in series [2] (patients with solid tumors) is “Grade 3 hyponatremia, anorexia, AST increase and febrile neutropenia”. The “MTD, cumulative dose per cycle” value in series [2] (patients with solid tumors) is 2.5 mg/m^2.

Values taken from patent EP2349259B1, “INHIBITORS OF MITOSIS FOR […] IN THERAPY” (Array Biopharma, Inc., priority 2008, dated 2010).
